Earlier results in US7157490B2, “Phenylalanine derivatives as dipeptidyl peptidase inhibitors for the treatment or prevention of diabetes” (Merck & Co., Inc., priority 2002, dated 2007).
Each block holds one compound with its values, some of them ahead of it.

Tests used:
[1] = tested on: rats; conditions: doubled from day 7
[2] = tested on: mouse model of cyclophosphamide-induced neutropenia
[3] = biological target: T1, DP-IV (Homo sapiens, UniProt P27487)
T1 construct: GRF is rapidly degraded in plasma to GRF[3–44]; from tissue
T1 sequence (P27487 39-766 limits assumed): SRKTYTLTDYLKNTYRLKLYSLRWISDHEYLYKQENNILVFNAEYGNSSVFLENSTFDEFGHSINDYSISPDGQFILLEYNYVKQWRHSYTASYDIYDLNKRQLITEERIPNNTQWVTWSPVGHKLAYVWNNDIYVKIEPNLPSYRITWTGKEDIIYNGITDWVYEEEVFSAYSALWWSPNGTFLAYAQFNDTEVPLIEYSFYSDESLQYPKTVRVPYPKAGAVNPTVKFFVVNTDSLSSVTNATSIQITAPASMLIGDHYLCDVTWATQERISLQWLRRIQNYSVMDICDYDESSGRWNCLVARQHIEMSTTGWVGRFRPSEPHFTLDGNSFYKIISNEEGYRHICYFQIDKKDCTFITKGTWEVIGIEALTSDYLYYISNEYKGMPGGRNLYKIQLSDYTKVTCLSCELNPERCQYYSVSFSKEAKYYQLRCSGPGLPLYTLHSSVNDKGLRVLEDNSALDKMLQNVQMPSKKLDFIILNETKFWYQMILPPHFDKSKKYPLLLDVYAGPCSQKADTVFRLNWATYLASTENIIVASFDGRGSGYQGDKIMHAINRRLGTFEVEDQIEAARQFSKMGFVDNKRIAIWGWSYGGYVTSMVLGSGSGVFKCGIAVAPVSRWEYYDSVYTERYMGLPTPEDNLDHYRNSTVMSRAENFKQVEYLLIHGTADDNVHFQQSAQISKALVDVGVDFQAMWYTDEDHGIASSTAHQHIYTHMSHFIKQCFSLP

Compound: CC(C)N1CCC(c2ccccc2)(c2ccccc2)CC1 [Prodipine, Pro-Pro-diphenyl-phosphonate]
- cardiac allograft survival [1]: 14 day

Compound: CC(C)[C@H](N)C(=O)N1CCC[C@H]1B(O)O [Val-Boro-Pro]
- hematopoiesis [2]: stimulated hematopoiesis

- degradation of GRF in plasma to GRF[3–44] [3]: prevented
Compound: diprotin A
